Laboratory results from patent US10371695B2, “Identifying compounds modifying a cellular phenotype” (2cureX ApS, priority 2014, dated 2019).

Experiments:
[1] = test system: micro-tumors (spheroids) from patient tumor tissue; assay: Screening of compounds imbedded in thermo sensitive nano-particles distributed in Matrigel on patient micro-tumors; type: cell-based, human; conditions: FIG. 4; images at day 0, 3, 5 and 7; compound released from nano-particles at 42° C.
Procedure: Materials and Solutions: • Nano-particles containing chemo therapeutic compounds • Support: Matrigel® available from BD Biosciences, • Arrays: Micro slide format array with 96 individual wells surrounded by a common reservoir as described in Example 1 • Cooling device for keeping 5° C.
Nano-particles, Matrigel® and arrays were kept at 5° C. (cooling block) throughout the process when not in the freezer. • 1. Compound containing nano-particles were diluted in Matrigel® (fluid). • 2. Matrigel containing the nano-particles (from above point 1) were added to individual wells of the array • 3. The arrays were centrifuged 10 min at 3000 RPM (cold) • 4. The arrays were stored at −18° C. for 24 hrs. (solid)
Materials and Solutions: • Array prepared accordingly to Example 2 • STEM media: DMEM/F12 w. 15% Hepes (Gibco 11330-032), StemPro hESC SFM growth supplement (50×):1× • BSA 25%, Gibco A10008-01: 1.8%, FGF-basic (10 ug/ml): 8 ng/ml, 2-Mercaptoethanol Gibco 21985 (55 mM): 0.1 mM, Penicillin/streptomycin 200 U/ml/200 ug/ml (=2× usual conc.), Gentamycin Sigma G1272: 1:100 (=2× usual conc.), Amphotericin (fungicide): 1:100 (=1× usual conc.), Hepes 15 mM • Incubator, 37° C. […]
Procedure: • 1. […] Images were acquired every day for 10 days and micro-tumor growth (and inhibition of growth) was measured by quantifying the area of the micro-tumors.

[2] = test system: micro-tumors (spheroids) from patient tumor tissue; assay: Chemo-sensitivity screening of compounds distributed in Matrigel on patient micro-tumors (growth by imaged area); type: cell-based, human; conditions: for cancer cell proliferation (spheroid/micro-tumour growth) inhibition: increasing concentrations, inhibited = spheroid grown to less than 1.5x original size after 7 days at least at highest concentrations tested
Procedure: Materials and Solutions: • Support: Matrigel® available from BD Biosciences. • Arrays: Micro slide format arrays with 96 individual wells surrounded by a common reservoir.
Compounds, Matrigel® and arrays are kept at 5° C. (cooling device) throughout the process when not in the freezer. • 1. Compounds were diluted in Matrigel® (Fluid) as single compounds and/or in combinations equal to standard treatment regimens of patients with colorectal cancer. • 2. Matrigel® with compounds were added to individual wells of the arrays (Fluid) • 3. Arrays were centrifuged 10 min at 3000 RPM (cold) • 4. Arrays were stored at −18° C. (Solid)—ready for use
Materials and Solutions: • Array prepared as described in Example 1 • STEM media: DMEM/F12 w. 15% Hepes (Gibco 11330-032), StemPro hESC SFM growth supplement (50×):1× • BSA 25%, Gibco A10008-01: 1.8%, FGF-basic (10 ug/ml): 8 ng/ml, 2-Mercaptoethanol Gibco 21985 (55 mM): 0.1 mM, Penicillin/streptomycin 200 U/ml/200 ug/ml (=2× usual conc.), Gentamycin Sigma G1272: 1:100 (=2× usual conc.), Amphotericin (fungicide): 1:100 (=1× usual conc.), Hepes 15 mM • Cooling device for keeping 5° C. • Incubator, 37° C. (CO2, 99% humidity for cell culture)
Procedure: • 1. Tumor tissue from patient was prepared to form a population of small individual micro-tumors (spheroids) • 2. Micro-tumors were suspended in cold STEM media • 3. The array was taken directly from freezer and placed on the cooling device (solid) • 4. 3 ml micro tumor suspension was added to the reservoir of the array and the array was left for 7 min. to allow cells to distribute and settle into individual wells of the array • 5. STEM media was gently removed from reservoir—leaving the micro tumors in the wells • 6. The array was moved to refrigerator (5° C.) and left for 30 min to allow Matrigel® to liquefy and the cells to settle at the bottom of the array (fluid) • 7. Hereafter the array was incubated at 37° C. for 1 hr. to allow the Matrigel® to solidify and entrap the cells in a certain position (solid) • 8. The array with micro-tumors positioned at the bottom was imaged at an automated microscope • 9. Images were acquired every day for 10 days and micro-tumor growth (and inhibition of growth) was measured by quantifying the area of the micro-tumors.
In general cancer cell proliferation as evidenced by spheroid (micro-tumour) growth was considered inhibited if the spheroid had grown to less than 1.5× the original size after 7 days of incubation at least at the highest concentrations tested.

SMILES | micro-tumour growth, proliferation of cancer cells [1] | time trace of micro-tumour (spheroid) growth, cancer cell proliferation ([2]; FIG. 3, presence or absence of compound) | cancer cell proliferation (spheroid/micro-tumour growth) inhibition ([2]; patient 2, FIG. 2a) | cancer cell proliferation (spheroid/micro-tumour growth) inhibition ([2]; patient 1, FIG. 2a)
CCc1c2c(nc3ccc(OC(=O)N4CCC(N5CCCCC5)CC4)cc13)-c1cc3c(c(=O)n1C2)COC(=O)[C@]3(O)CC [Irinotecan] | inhibits proliferation | clearly inhibited cancer cell proliferation |  | 
O=C1[O][Pt]2([NH][C@@H]3CCCC[C@H]3[NH]2)[O]C1=O [Oxaliplatin] |  |  | inhibited | 
O=c1[nH]cc(F)c(=O)[nH]1 [5FU] |  |  | inhibited | inhibited
CCc1c2c(nc3ccc(O)cc13)-c1cc3c(c(=O)n1C2)COC(=O)[C@]3(O)CC [SN38] |  |  | inhibited | inhibited
